Data: patent publication US20200405696A1, “INHIBITORS OF INDOLEAMINE 2,3-DIOXYGENASE AND/OR TRYPTOPHAN 2,3-DIOXYGENASE” (IDORSIA PHARMACEUTICALS LTD, priority 2018, published 2020)

Tests used:
[1] = molecular target: T1, Recombinant human TDO comprising amino acids 19-407 (Homo sapiens, UniProt P48775); assay: TDO2 enzymatic assay (NFK quantified by LCMS); format: biochemical; conditions: 15 nM enzyme, 200 μM L-tryptophan, pH7, 30 minutes pre-incubation at RT; mean values when measured multiple times; read-out: hTDO activity (IC50 in nM)
T1 construct: Recombinant human TDO comprising amino acids 19-407 with a N-terminal hexahistidine tag; hexahistidine (His6) (N); made in house; host or cells: E. coli
Description: 2) Testing Compounds for TDO Inhibitory Activity in a TDO2 Enzymatic Assay:
Recombinant human TDO comprising amino acids 19-407 with a N-terminal hexahistidine tag expressed in E. coli and purified to homogeneity is incubated at a final concentration of 15 nM in assay buffer consisting of 75 mM phosphate buffer at pH7 supplemented with 100 μM ascorbic acid, 50U/ml Catalase, 0.01% BSA, and 0.01% Tween 20 (protocol modified from Seegers et al, JBS 2014). Example compounds are serially diluted in DMSO, further diluted in phosphate buffer, and added to the reaction mixture at final concentrations ranging from 10 μM to 0.5 nM. The final DMSO concentration is 0.6%. Following a pre-incubation of 30 minutes at RT, the reaction is started by the addition of L-tryptophan at a final concentration of 200 μM in assay buffer. After 30 minutes of incubation at RT, 3 μL of the reaction mixture are transferred to a 384 deep well plate containing 25 μL of deionized water. 100 μl of 200 nM L-Tryptophan-(indole-d5) in cold 100% methanol are added followed by a 10 minutes centrifugation at 3220×g at 4° C. An additional 75 μL of deionized water are then added followed by a 10 minutes centrifugation at 3220×g at 4° C. The product of the reaction N′-Formylkynurenine (NFK) is quantified by LCMS and normalized to the L-Tryptophan-(indole-d5) signal. Samples with 0.6% DMSO (0% effect) and a TDO/IDO inhibitor (100% effect) are used as control samples to set the parameters for the non-linear regression necessary for the determination of the half-maximal inhibitory concentration (IC50) for each compound. For each compound concentration the percentage of activity compared to 0% and 100% effect is calculated as average±STDEV (each concentration measured in duplicate). IC50 values and curves are generated with XLfit software (IDBS) using Dose-Response One Site model 203 (four parameter logistic curve model). The calculated IC50 values may fluctuate depending on the daily assay performance. Fluctuations of this kind are known to those skilled in the art. When compounds are measured multiple times, mean values are given.

[2] = molecular target: T2, Recombinant full-length human IDO1 (Homo sapiens, UniProt P14902); assay: IDO1 enzymatic assay (NFK quantified by LCMS); format: biochemical; conditions: 2 nM enzyme, 5 μM L-tryptophan, pH6.5, 30 minutes pre-incubation at RT; mean values when measured multiple times; read-out: hIDO activity (IC50 in nM)
T2 construct: Recombinant full-length human IDO1 with a N-terminal hexahistidine tag; hexahistidine (His6) (N); made in house; host or cells: E. coli
Description: 1) Testing Compounds for IDO Inhibitory Activity in an IDO1 Enzymatic Assay:
Recombinant full-length human IDO1 with a N-terminal hexahistidine tag expressed in E. coli and purified to homogeneity is incubated at a final concentration of 2 nM in assay buffer consisting of 37.5 mM phosphate buffer at pH6.5 supplemented with 10 mM ascorbic acid, 0.45 μM methylene blue, 50U/ml catalase, 0.01% BSA, and 0.01% Tween 20 (protocol modified from Seegers et al, JBS 2014). Example compounds are serially diluted in DMSO, further diluted in phosphate buffer, and added to the enzyme at final concentrations ranging from 10 μM to 0.5 nM. The final DMSO concentration is 0.6%. Following a pre-incubation of 30 minutes at RT, the reaction is started by the addition of L-tryptophan at a final concentration of 5 μM in assay buffer. After 30 minutes of incubation at RT, 3 μL of the 20 μl reaction mixture are transferred to a 384 deep well plate containing 25 μL of deionized water. 100 μl of 200 nM L-Tryptophan-(indole-d5) in cold 100% methanol are added followed by a 10 minutes centrifugation at 3220×g at 4° C. An additional 75 μL of deionized water are then added followed by a 10 minutes centrifugation at 3220×g at 4° C. The product of the reaction N′-Formylkynurenine (NFK) is quantified by LCMS and normalized to the L-Tryptophan-(indole-d5) signal. Samples with 0.6% DMSO (0% effect) and a TDO/IDO inhibitor (100% effect) are used as control samples to set the parameters for the non-linear regression necessary for the determination of the half-maximal inhibitory concentration (IC50) for each compound. For each compound concentration the percentage of activity compared to 0% and 100% effect is calculated as average±STDEV (each concentration measured in duplicate). IC50 values and curves are generated with XLfit software (IDBS) using Dose-Response One Site model 203 (four parameter logistic curve model). The calculated IC50 values may fluctuate depending on the daily assay performance. Fluctuations of this kind are known to those skilled in the art. When compounds are measured multiple times, mean values are given.

T1 sequence (P48775 19-406 limits assumed): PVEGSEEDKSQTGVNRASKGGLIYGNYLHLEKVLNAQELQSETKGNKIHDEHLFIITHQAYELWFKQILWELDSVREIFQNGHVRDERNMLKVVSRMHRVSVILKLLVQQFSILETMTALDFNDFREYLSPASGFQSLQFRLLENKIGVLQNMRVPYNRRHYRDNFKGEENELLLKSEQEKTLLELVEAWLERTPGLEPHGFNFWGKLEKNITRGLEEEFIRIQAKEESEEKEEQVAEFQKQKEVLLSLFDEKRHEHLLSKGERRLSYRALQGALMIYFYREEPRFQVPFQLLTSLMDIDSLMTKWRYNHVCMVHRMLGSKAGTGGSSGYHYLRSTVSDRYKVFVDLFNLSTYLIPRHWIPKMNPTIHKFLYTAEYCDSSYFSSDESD
T2 sequence (P14902 whole entry): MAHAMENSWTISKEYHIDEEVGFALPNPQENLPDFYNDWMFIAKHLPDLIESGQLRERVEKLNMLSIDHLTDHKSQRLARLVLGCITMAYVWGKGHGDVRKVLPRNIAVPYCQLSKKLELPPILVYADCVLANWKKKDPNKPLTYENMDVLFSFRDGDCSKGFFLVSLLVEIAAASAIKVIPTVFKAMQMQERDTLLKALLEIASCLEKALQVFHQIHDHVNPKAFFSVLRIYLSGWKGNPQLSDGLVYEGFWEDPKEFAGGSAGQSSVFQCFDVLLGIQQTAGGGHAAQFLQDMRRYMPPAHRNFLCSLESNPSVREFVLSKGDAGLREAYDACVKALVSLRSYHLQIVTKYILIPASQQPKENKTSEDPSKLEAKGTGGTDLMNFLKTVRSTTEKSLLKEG

Row | IC50 [1] [nM] | IC50 [2] [nM] | SMILES
1 | 2300 | 23.8 | O=[N+]([O-])c1cc(-n2cc(C(O)c3c(-c4ccccc4)sc4cncn34)nn2)ccc1O (racemic) [Example 250, rac-4-{4-[Hydroxy-(2-phenyl-imidazo[5,1-b]thiazol-3-yl)-methyl]-[1,2,3]triazol-1-yl}-2-nitro-phenol]
2 | > 10200 | 108 | OC(c1cn(-c2ccc(OC(F)(F)F)cc2)nn1)c1c(C2CC2)sc2cncn12 (racemic) [Example 31, rac-(2-Cyclopropyl-imidazo[5,1-b]thiazol-3-yl)-[1-(4-trifluoromethoxy-phenyl)-1H-[1,2,3]triazol-4-yl]-methanol]
3 | > 10200 | 7.31 | CC(C)(O)COc1ccc(-n2cc([C@H](O)c3c(C4CC4)sc4cncn34)nn2)cc1Cl [Example 283, 1-(2-Chloro-4-{4-[(R)-(2-cyclopropyl-imidazo[5,1-b]thiazol-3-yl)-hydroxy-methyl]-[1,2,3]triazol-1-yl}-phenoxy)-2-methyl-propan-2-ol]
4 | > 10200 | 4.09 | OCCCOc1ccc(-n2cc([C@H](O)c3c(C4CC4)sc4cncn34)nn2)cc1 [Example 137a, 3-(4-{4-[(R)-(2-Cyclopropyl-imidazo[5,1-b]thiazol-3-yl)-hydroxy-methyl]-[1,2,3]triazol-1-yl}-phenoxy)-propan-1-ol]
5 | > 10200 | 391 | Cc1sc2cncn2c1C(O)c1cn(-c2ccc(C3(CO)CC3)cc2)nn1 (racemic) [Example 57, rac-{1-[4-(1-Hydroxymethyl-cyclopropyl)-phenyl]-1H-[1,2,3]triazol-4-yl}-(2-methyl-imidazo[5,1-b]thiazol-3-yl)-methanol]
6 | > 10200 | 13.7 | CC1(c2sc3cncn3c2C(O)c2cn(-c3ccc(OCCCO)c(Cl)c3)nn2)CC1 (racemic) [Example 313, rac-3-[2-Chloro-4-(4-{hydroxy-[2-(1-methyl-cyclopropyl)-imidazo[5,1-b]thiazol-3-yl]-methyl}-[1,2,3]triazol-1-yl)-phenoxy]-propan-1-ol]
7 | > 10200 | 34.8 | C=C(C)c1sc2cncn2c1C(O)c1cn(-c2ccc(OCC3(F)COC3)c(Cl)c2)nn1 (racemic) [Example 299, rac-{1-[3-Chloro-4-(3-fluoro-oxetan-3-ylmethoxy)-phenyl]-1H-[1,2,3]triazol-4-yl}-(2-isopropenyl-imidazo[5,1-b]thiazol-3-yl)-methanol]
8 | 8840 | 6.63 | COc1ccc(-n2nnc(C(O)c3c(C4CC4)sc4cncn34)c2C)cc1Cl (racemic) [Example 295, rac-[1-(3-Chloro-4-methoxy-phenyl)-5-methyl-1H-[1,2,3]triazol-4-yl]-(2-cyclopropyl-imidazo[5,1-b]thiazol-3-yl)-methanol]
9 | > 10200 | 23.3 | Oc1cccc(Cn2cc(C(O)c3c(C4CC4)sc4cncn34)nn2)c1 (racemic) [Example 298, rac-3-{4-[(2-Cyclopropyl-imidazo[5,1-b]thiazol-3-yl)-hydroxy-methyl]-[1,2,3]triazol-1-ylmethyl}-phenol]
10 | > 10200 | 7.26 | C=C(C)c1sc2cncn2c1C(O)c1cn(-c2ccc(OC)cc2)nn1 (racemic) [Example 269, rac-(2-Isopropenyl-imidazo[5,1-b]thiazol-3-yl)-[1-(4-methoxy-phenyl)-1H-[1,2,3]triazol-4-yl]-methanol]
11 | 7710 | 279 | Cn1nncc1-c1ccc(C(O)c2c(C3CC3)sc3cncn23)s1 (racemic) [Example 174, rac-(2-Cyclopropyl-imidazo[5,1-b]thiazol-3-yl)-[5-(3-methyl-3H-[1,2,3]triazol-4-yl)-thiophen-2-yl]-methanol]
12 | > 10200 | 3.71 | CC(C)C(=O)Nc1ccc(-n2cc([C@H](O)c3c(C4CC4)sc4cncn34)nn2)cc1 [Example 192a, N-(4-{4-[(R)-(2-Cyclopropyl-imidazo[5,1-b]thiazol-3-yl)-hydroxy-methyl]-[1,2,3]triazol-1-yl}-phenyl)-isobutyramide]
